Source: patent US10105380B2, “Glycoclusters and their pharmaceutical use as antibacterials” (priority 2013, dated 2018)
Values after ≈ are worked out from the molar mass of the structure shown. Where two headings read alike, the source gives them in different places.

Assays:
[1] = biological target: T1, PA-IL (Pseudomonas aeruginosa, UniProt Q05097); format: binding; settings: for Potency vs EG3-O-Gal: ratio of IC50Lac to mono EG3-O-galactose (entry 1); for Potency vs AcNPhe-O-Gal: ratio of IC50Lac to mono-aromatic galactose 31 (entry 2)
T1 sequence (Q05097 2-122): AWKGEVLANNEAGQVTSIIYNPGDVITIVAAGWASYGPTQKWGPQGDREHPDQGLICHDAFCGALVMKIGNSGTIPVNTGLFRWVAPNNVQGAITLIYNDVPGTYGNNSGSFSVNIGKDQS
Procedure: IC50 Determination with “on Chip” Biological Recognition
Lectin PA-IL (0.12 μM final concentration), BSA (2% final concentration) and CaCl2 (1 μg/mL final concentration) was diluted in PBS1× (pH=7.4). In each micro tube was added the inhibitor lactose at the desired final concentration (0; 1.10^−5; 1.10^−4; 5.10^−4; 1.10^−3; 5.10^−3; 1.10^−2; 5.10^−2; 0.1; 1; 5; 10; 50; 10^2; 5.10^2; 10^3; 5.10^3; 10^4; 10^5; 3.10^5).
2 μL of each solution were deposited in the corresponding microwells and the slide was incubated at 37° C. in a water vapor saturated chamber for 3 h. The washing steps are: PBS-Tween0.2% 5 min at 4° C., then briefly in deionized water and dried by centrifugation.
Slide was scanned at 532 nm then at 635 nm with the Microarray scanner, GenePix 4100A software package (Axon Instruments; λex 532/635 nm and λem 575/670 nm). The fluorescence signal of each conjugate was determined as the average of the mean fluorescence signal of sixty-four spots.
IC50 values were determined using “BioDataFit 1.02 program”. The model chosen was “Sigmoidal”: Y=a+(b−a)/[1+10^(x−c)]
with a=FImin, b=FImax, x=[…] and c=log(IC50). FImin/max is the minimum/maximum Alexa-647 fluorescence signal observed for a galactomimetic.
So the IC50 value was called IC50Lac.

[2] = biological target: T1, PA-IL; experiment: Kd determination on DDI microarray (Langmuir isotherm, Scatchard plot); format: binding
Procedure: The methodologies for Kd and IC50 value determination have been previously reported (Gerland, B. et al., (2012) Bioconjugate Chem. 23, 1534-1547; Zhang, J. et al., (2009) Chem. Comm., 6795-6797; Zhang, J. et al., (2009) Biosens. Bioelectron. 24, 2515-2521).
CaCl2 (1 μg/mL final concentration) was added. PA-IL at the desired final concentration was then added. 2 μL of each solution (corresponding to the desired PA-IL concentration) were poured in the corresponding microwells. The slide was incubated (3 h, 37° C.) in a water vapor saturated chamber and finally washed in PBS-Tween 20 (0.02%, 5 min, 4° C.) and dried. A Microarray scanner, GenePix 4100A software package (Axon Instruments; λex 532/635 nm and λem 575/670 nm) was used for fluorescent imaging of both fluorophore (Cy3 and Alexa 647). The average of the mean fluorescence signal was calculated from eight spots. The resulting Langmuir Isotherms were linearised using Scatchard plot to give the Kd values at the ordonnate intercept.

[3] = biological target: T1, PA-IL; experiment: Surface Plasmon Resonance (SPR) inhibition; format: binding; settings: IC50 of Gal-ArNO2 over IC50 of the molecule
Procedure: (§1) The binding of PA-IL to galactoclusters was probed as the ability of the clusters to inhibit the binding of PA-IL to rabbit erythrocytes (Hemagglutination inhibition assay, HIA) or to surface bound galactosyl modified polyacrylamide either by Surface Plasmon Resonance (SPR), Enzyme Linked Assay (ELLA) Inhibition was measured with competitive assays. In HIA experiments, the minimal inhibitory concentration (MIC) is the minimal concentration of galactocluster that inhibit the hemagglutination of rabbit erythrocytes in presence of the lectin. The lower the MIC the highest is the binding of the galactocluster to the lectin. SPR and ELLA were used to determine the IC50 value. […] The lower the IC50 value as determined by SPR (^SPRIC50) and ELLA (^ELLAIC50), the higher is the binding of PA-IL to the galactocluster.
SPR inhibition experiments were performed using a Biacore 3000 instrument at 25° C. Measurements were carried out on two channels with two immobilized sugars: α-L-fucose (channel 1) and α-D-galactose (channel 2). Immobilization of sugars was performed at 25° C. using running buffer (HBS) at […]. Immobilization on each channel (CM5 Chip) was performed independently as follows. First, the channel was activated by injecting a fresh mixture of EDC/NHS (35 μL, 420 s). Then a solution of streptavidin ([…] in 0.1 mM AcONa pH 5 buffer) was injected (50 μL, 600 s). The remaining reactive species were quenched by injecting ethanolamine (1M, 35 μL, 420 s) into the solution. Finally, a solution of the desired biotinylated-polyacrylamide-sugar (lectinity, […]) was coated onto the surface (50 μL, 600 s) through streptavidin-biotin interaction. […] Inhibition studies consisted of the injection (150 μL, 10 μL·min^−1, dissociation 120 s) of incubated (>1 h, RT) mixtures of PAIL ([…]) and various concentrations of inhibitor (twofold cascade dilutions). […] The CM5 chip was fully regenerated by successive injections of d-galactose (2×30 μL, 100 mm in running buffer). Binding was measured as RU over time after blank subtraction, and data were then evaluated using the BIAevaluation Software version 4.1. For IC50 evaluation, the response (Req-fitted) was considered to be the amount of lectin bound to the carbohydrate-coated surface at equilibrium in the presence of a defined concentration of inhibitor. Inhibition curves were obtained by plotting the percentage of inhibition against the inhibitor concentration (on a logarithmic scale) by using Origin 7.0 software (OriginLab Corp.), and IC50 values were extracted from sigmoidal fit of the inhibition curve.
Microtiter plates were modified with PAA-galactose. […] The lowest the IC50 as determined the strongest is the binding of the studied molecule to PA-IL. […]

[4] = biological target: T1, PA-IL; experiment: Enzyme Linked Lectin Assay (ELLA), PAA-galactose coated plates; format: binding; settings: IC50 of Gal-ArNO2 over IC50 of the molecule
Procedure: as §1
96-Well microtiter plates (NuncMaxisorb) were coated with α-PAA-Gal(PAA=polyacrylamide) for PA-IL (Lectinity Holding, Inc.): 100 μL of 5 μg·mL^−1 in carbonate buffer, pH 9.6 for 1 h at 37° C., then blocking at 37° C. for 1 h with 100 μL per well of 3% (w/v) bovine serum albumin (BSA) in phosphate buffer solution (PBS). Lectin solutions (75 μL) were diluted (1:2) starting from 30 μg·mL^−1. After 1 h incubation at 37° C. and three washes with T-PBS (PBS that contained 0.05% Tween 20), horseradish peroxidase (HRP)-streptavidin conjugate (100 μL; dilution 2:8000; Boehringer-Mannheim) was added and left for 1 h at 37° C. Coloration was developed by using 100 μL per well of 0.05% phosphate/citrate buffer that contained o-phenylenediaminedihydrochloride ([…]) and urea hydrogen peroxide (0.4 mg·mL^−1) (OPD kit, Sigma-Aldrich) for 15 min and stopped with sulfuric acid (50 μL, 30%). Absorbance was then read at 490 nm using a microtiter plate reader (BioRad 680). The concentration of biotinylatedlectins was determined by plotting the relative absorbance versus lectin concentration. The concentration that led to the highest response in the linear area was selected as the standard lectin concentration for the subsequent inhibition experiments.
Microtiter plates were modified with PAA-galactose. Slides were incubated with increasing concentration of galactosylated ligands. […] The lowest the IC50 as determined the strongest is the binding of the studied molecule to PA-IL. ELLA: This IC50 will be referred here after ^ELLAIC50. SPR: This IC50 will be referred here after ^SPRIC50.

[5] = biological target: T1, PA-IL; experiment: Hemagglutination inhibition assay (HIA), rabbit erythrocytes; format: cell-based
Procedure: as §1
Hemagglutination inhibition assays (HIA) were performed in U-shaped 96-well microtitre plates. Rabbit erythrocytes were purchased from Biomérieux and used without further washing. Erythrocytes were diluted to a 8% solution in NaCl (100 mM). PA-IL solutions of 3 μM were prepared in TRIS-HCl 20 mM (TRIS=tris(hydroxymethyl)aminomethane), NaCl 100 mM, and CaCl2 100 mM. The hemagglutination unit (HU) was first obtained by addition of the 4% erythrocyte solution (50 μL) to aliquots (50 μL) of sequential (twice) lectin dilutions. The mixture was incubated at 25° C. for 30 min. The HU was measured as the minimum lectin concentration required to observe hemagglutination. For the following lectin-inhibition assays, lectin concentrations of 4 HU were used. […] Subsequent inhibition assays were then carried out by the addition of lectin solution (25 μL, at the required concentration) to sequential dilutions (50 μL) of glycoclusters, monomer molecules, and controls. These solutions were incubated at 37° C. for 30 min, then 8% erythrocyte solution (25 μL) was added, followed by an additional incubation at 37° C. for 1 h. The minimum inhibitory concentration for each molecule was determined for each duplicate.

[6] = biological target: T1, PA-IL; format: binding; settings: potency in respect with GalOMe (ITC Kd)
Procedure: Recombinant lyophilized PA-IL was dissolved in buffer (0.1 M TRIS-HCl, 6 μM CaCl2, pH 7.5) and degassed. […] ITC was performed using a VP-ITC MicroCalorimeter from MicroCal Incorporated. PA-IL was placed into the1.4478 mL sample cell, at 25° C. Titration was performed with 10 μL injections of carbohydrate ligands every 300 s. Data were fitted using the “one-site model” using MicroCal Origin 7 software according to standard procedures. Fitted data yielded the stoichiometry (n), the association constant (Ka), and the enthalpy of binding (ΔH). Other thermodynamic parameters (i.e., changes in free energy ΔG and entropy ΔS) were calculated from the equation ΔG=ΔH−TΔS=−RTlnKa in which T is the absolute temperature and R=8.314 J·mol^−1·K^−1. Two or three independent titrations were performed for each ligand tested.

[7] = biological target: T1, PA-IL; experiment: DDI glycoarray, direct fluorescence scanning with Alexa647-PA-IL; format: binding; settings: result in words
[8] = DNA-tagged galactoclusters G1-G24 on glycoarray, read-out: IC50
[9] = DNA-tagged galactoclusters G1-G24 on glycoarray
[10] = lactose concentration required to displace 50% of PA-IL from the glycocluster, higher = better binding, read-out: IC50Lac

Molecule	IC50 [1, 8] [mM]	Kd [2, 9] [nM]	other results
Man(PSEG2MTzAcNPh-SGal)4 [G10]	38.2	55	
Man(EG3MTzAcNPh-SGal)4 [G11]	63.9	49	
Man(PSEG3MTzAcNPh-Gal)4 [G4]	17.7	76	
Man(PSEG3MTzAcNPh-SGal)4 [G12]	19.7	70	
Man(EG3MTzproNCOBisphe-OGal)4 [G19]	68.9	46	
Man(PSEG2MTzproNCONapht-OGal)4 [G22]		20	
Man(POProTzEG3-O-Gal)4			SPR βAr [3]: 1.7; ELLA βAr [4]: 1.2
Man(PSEG2MTzAcNPhe-CH2-SGal)4 [G14]	18.5	71	
CO[C@@H]1O[C@H](CO)[C@H](O)[C@H](O)[C@H]1O [Gal-OMe, 1-O-Methyl-β-D-galactoside]			MIC ([5]; minimal inhibitory concentration of hemagglutination, PA-IL 3 μM): 16 mM (≈ 3110 µg/mL); βAr ([5]; ratio of MIC of Gal-OArNO2 over MIC of the molecule): 0.13; βMe ([5]; ratio of MIC of Gal-OMe over MIC of the molecule): 1.0; βMe [6]: 1
Man(PSEG3MTzproNCOBisphe-OGal)4 [G20]	81.6	43	
Man(HexTzM-Gal)4 [compound 18]			binding to PA-IL on microarray [7]: high binding; IC50 [1, 10]: 0.107 mM; Potency vs EG3-O-Gal [1]: 21; Potency vs AcNPhe-O-Gal [1]: 6.7
Man(POEG2MTzAcNPhe-O-Gal)4 [compound 32]			IC50 ([1]; Table 6, DNA-galactomimetics, lactose as inhibitor, read-out: microarray IC50Lac): 4.22 mM; β ([1]; Table 6, relative potency vs monovalent ligand 31): 264; IC50 [1, 10]: 4.22 mM; Potency vs EG3-O-Gal [1]: 844; Potency vs AcNPhe-O-Gal [1]: 264; Kd ([2]; text b577, microarray, Langmuir isotherm): 83 nM
Man(EG3MTzproNCONapht-OGal)4 [G23]	68	48	
Man(PSEG3MTzAcNPhe-CH2-SGal)4 [G16]	18.1	75	
